Data on eleven compounds can be found in patent US8076487B2, “Pyridone derivative and herbicide” (Kumiai Chemical Industry Co., Ltd., priority 2006, dated 2011).

Type in all cases: in vivo
Assay [1] concerns velvetleaf (Abutilon theophrasti medicus). The assay is described as follows: Test Example 2: herbicidal effect by soil application to upland field. The settings on record: soil surface spray, upland field soil, 1,000 g active ingredient per hectare, 21st day after application. Here is the method:
(§1) [table] Test Example 2 Test on Herbicidal Effect by Soil Application to Upland field In a 80 cm2 plastic pot, field soil was filled. Seeds of barnyardgrass (Echinochloa crus-galli (L.) P. Beauv. var. crus-galli), green foxtail (Setaria viridis (L.) P. Beauv.), velvetleaf (Abutilon theophrasti medicus), and slender amaranth (Amaranthus viridis L.) were sown and covered with soils. The wettable powder prepared according to Formulation Example 1 was diluted in water and a 1,000 liter equivalent amount per 1 hectare so that the active ingredient becomes 1,000 g per 1 hectare was uniformly sprayed on a soil surface using a small sprayer. Then, on the 21st day after the application to the plants grew in a greenhouse, the herbicidal effect was examined in accordance with a standard shown in Table 34.

Assay [2] deals with barnyardgrass (Echinochloa crus-galli (L.) P. Beauv. var. crus-galli). Described as above. The settings on record: soil surface spray, upland field soil, 1,000 g active ingredient per hectare, 21st day after application. Here is the method:
as §1

Assay [3] relates to green foxtail (Setaria viridis (L.) P. Beauv.). Described as above. The settings on record: soil surface spray, upland field soil, 1,000 g active ingredient per hectare, 21st day after application. Here is the method:
as §1

Assay [4] has as its system slender amaranth (Amaranthus viridis L.). The description is as above. The settings on record: soil surface spray, upland field soil, 1,000 g active ingredient per hectare, 21st day after application. Here is the method: as §1
The test system of assay [5] is heartshape false pickerelweed (Monochoria vaginalis (Burm.f.) C.Presl). Briefly: Test Example 1: herbicidal effect by soil application to paddy field. The settings on record: paddy field soil application; active ingredient 1,000 g per 1 hectare; wettable powder added dropwise to water surface the day after sowing; examined on the 21st day after application. In short, it runs like this:
(§2)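 Plants were sown in flooded (3 cm) paddy soil and evaluated for herbicidal effect 21 days after soil application in a greenhouse.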

Assay [6] has as its system early watergrass (Echinochloa oryzicola Vasing). The description is as above. The settings on record: paddy field soil application; active ingredient 1,000 g per 1 hectare; wettable powder added dropwise to water surface the day after sowing; examined on the 21st day after application. Summed up: as §2
The test system of assay [7] is Japanese bulrush (Scirpus juncoides Roxb.). Described as above. The settings on record: paddy field soil application; active ingredient 1,000 g per 1 hectare; wettable powder added dropwise to water surface the day after sowing; examined on the 21st day after application. In short, it runs like this:
as §2

Assay [8] concerns velvetleaf (Abutilon theophrasti medicus). Briefly: Test Example 3: herbicidal effect by application to upland field (foliage treatment). The settings on record: 14th day after application; for herbicidal effect (index), Velvetleaf: foliage treatment, plants grown two weeks, 1,000 g active ingredient per hectare; for herbicidal effect, Velvetleaf: foliage treatment, 1,000 g active ingredient per 1 hectare, greenhouse. Summed up:
(§3)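 Upland foliage test in greenhouse pots of field soil: seedlings sprayed at two weeks post-sowing with 1,000 g/ha active ingredient (wettable powder, 1,000 L water/ha). Scored 14 d after application.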

Assay [9] concerns barnyardgrass (Echinochloa crus-galli (L.) P. Beauv. var. crus-galli). The assay is described as above. The settings on record: 14th day after application; for herbicidal effect (index), Barnyardgrass: foliage treatment, plants grown two weeks, 1,000 g active ingredient per hectare; for herbicidal effect, Barnyardgrass: foliage treatment, 1,000 g active ingredient per 1 hectare, greenhouse. Summed up: as §3

The test system of assay [10] is green foxtail (Setaria viridis (L.) P. Beauv.). Described as above. The settings on record: 14th day after application; for herbicidal effect (index), Green Foxtail: foliage treatment, plants grown two weeks, 1,000 g active ingredient per hectare; for herbicidal effect, Green Foxtail: foliage treatment, 1,000 g active ingredient per 1 hectare, greenhouse. In short, it runs like this:
as §3

The subject of assay [11] is slender amaranth (Amaranthus viridis L.). The assay is described as above. The settings on record: 14th day after application; for herbicidal effect (index), Slender Amaranth: foliage treatment, plants grown two weeks, 1,000 g active ingredient per hectare; for herbicidal effect, Slender Amaranth: foliage treatment, 1,000 g active ingredient per 1 hectare, greenhouse. In short, it runs like this:
as §3

As for `CC(=O)Oc1c(C(=O)c2ccc(C(F)(F)F)n(-c3cc([N+](=O)[O-])ccc3F)c2=O)cnn1C` [IV-89], the “herbicidal effect (index), Velvetleaf” value in assay [1] was 5 (90% or more of herbicidal effect and crop phytotoxicity). For the same compound, in assay [2], the “herbicidal effect (index), Barnyardgrass” value is 5 (90% or more of herbicidal effect and crop phytotoxicity). For the same compound, the “herbicidal effect (index), Green Foxtail” value in [3] was 4 (70 to less than 90% of herbicidal effect and crop phytotoxicity). Also, the “herbicidal effect (index), Slender Amaranth” value in assay [4] is 4 (70 to less than 90% of herbicidal effect and crop phytotoxicity). The “herbicidal effect, Monochoria vaginalis (Burm. f.) C. Presl” value (from here on “herbicidal effect, Monochoria vaginalis”) in assay [5] is 5 (90% or more of herbicidal effect and crop phytotoxicity). In addition, the “herbicidal effect, Echinochloa oryzicola Vasing” value in assay [6] was 4 (70 to less than 90% of herbicidal effect and crop phytotoxicity). For the same compound, the “herbicidal effect, Scirpus juncoides Roxb.” value in [7] was 4 (70 to less than 90% of herbicidal effect and crop phytotoxicity).
`N#CC(C(=O)c1ccc(C(F)(F)F)n(CC(F)(F)F)c1=O)=C(O)C1CC1` [V-22]: the “herbicidal effect (index), Velvetleaf” value in assay [1] is 5 (90% or more of herbicidal effect and crop phytotoxicity). Moreover, the “herbicidal effect (index), Barnyardgrass” value in assay [2] is 4 (70 to less than 90% of herbicidal effect and crop phytotoxicity). Moreover, the “herbicidal effect (index), Green Foxtail” value in assay [3] is 4 (70 to less than 90% of herbicidal effect and crop phytotoxicity). Further, in assay [4], the “herbicidal effect (index), Slender Amaranth” value was 5 (90% or more of herbicidal effect and crop phytotoxicity).
Take `CCCS(=O)(=O)Oc1c(C(=O)c2ccc(C(F)(F)F)n(CCC=C(Cl)Cl)c2=O)cnn1C` [IV-31]: the “herbicidal effect (index), Velvetleaf” value in [1] was 4 (70 to less than 90% of herbicidal effect and crop phytotoxicity). The “herbicidal effect (index), Barnyardgrass” value in assay [2] is 4 (70 to less than 90% of herbicidal effect and crop phytotoxicity). Also, in assay [3], the “herbicidal effect (index), Green Foxtail” value is 3 (50 to less than 70% of herbicidal effect and crop phytotoxicity). Also, in assay [4], the “herbicidal effect (index), Slender Amaranth” value is 5 (90% or more of herbicidal effect and crop phytotoxicity).
In the case of `CCn1c(C(F)(F)F)ccc(C(=O)C2=C(O)CCCC2=O)c1=O` [I-2], in assay [8], the “herbicidal effect (index), Velvetleaf” value was 5 (90% or more of herbicidal effect and crop phytotoxicity). In addition, in assay [9], the “herbicidal effect (index), Barnyardgrass” value was 5 (90% or more of herbicidal effect and crop phytotoxicity). The “herbicidal effect (index), Green Foxtail” value in assay [10] is 5 (90% or more of herbicidal effect and crop phytotoxicity). Further, the “herbicidal effect (index), Slender Amaranth” value in [11] was 5 (90% or more of herbicidal effect and crop phytotoxicity). Moreover, the “herbicidal effect, Monochoria vaginalis” value in assay [5] is 5 (90% or more of herbicidal effect and crop phytotoxicity). For the same compound, the “herbicidal effect, Echinochloa oryzicola Vasing” value in assay [6] was 5 (90% or more of herbicidal effect and crop phytotoxicity). Besides, the “herbicidal effect, Scirpus juncoides Roxb.” value in assay [7] is 5 (90% or more of herbicidal effect and crop phytotoxicity).
Consider `CC(CCn1c(C(F)(F)F)ccc(C(=O)C2=C(O)CCCC2=O)c1=O)=C(F)F` [I-27], for which the “herbicidal effect (index), Velvetleaf” value in assay [8] is 5 (90% or more of herbicidal effect and crop phytotoxicity). Also, the “herbicidal effect (index), Barnyardgrass” value in [9] was 4 (70 to less than 90% of herbicidal effect and crop phytotoxicity). In addition, the “herbicidal effect (index), Green Foxtail” value in [10] is 3 (50 to less than 70% of herbicidal effect and crop phytotoxicity). The “herbicidal effect (index), Slender Amaranth” value in assay [11] was 5 (90% or more of herbicidal effect and crop phytotoxicity). Also, the “herbicidal effect, Monochoria vaginalis” value in [5] is 5 (90% or more of herbicidal effect and crop phytotoxicity). In addition, in assay [6], the “herbicidal effect, Echinochloa oryzicola Vasing” value is 5 (90% or more of herbicidal effect and crop phytotoxicity). In assay [7], the “herbicidal effect, Scirpus juncoides Roxb.” value was 5 (90% or more of herbicidal effect and crop phytotoxicity).
Consider `Cc1ccc(C(=O)C2=C(O)CCCC2=O)c(=O)n1-c1ccccc1` [I-229], for which the “herbicidal effect, Velvetleaf” value in assay [8] was 5 (90% or more of herbicidal effect and crop phytotoxicity). The “herbicidal effect, Barnyardgrass” value in assay [9] was 4 (70 to less than 90% of herbicidal effect and crop phytotoxicity). In assay [10], the “herbicidal effect, Green Foxtail” value was 4 (70 to less than 90% of herbicidal effect and crop phytotoxicity). Also, the “herbicidal effect, Slender Amaranth” value in assay [11] is 5 (90% or more of herbicidal effect and crop phytotoxicity). For the same compound, in [5], the “herbicidal effect, Monochoria vaginalis” value was 5 (90% or more of herbicidal effect and crop phytotoxicity). In [6], the “herbicidal effect, Echinochloa oryzicola Vasing” value is 4 (70 to less than 90% of herbicidal effect and crop phytotoxicity). Moreover, the “herbicidal effect, Scirpus juncoides Roxb.” value in assay [7] is 4 (70 to less than 90% of herbicidal effect and crop phytotoxicity).
On to `C=C(C)Cn1c(C(F)(F)F)ccc(C(=O)c2cnn(C)c2O)c1=O` [IV-13], for which the “herbicidal effect, Velvetleaf” value in [8] is 5 (90% or more of herbicidal effect and crop phytotoxicity). For the same compound, in assay [9], the “herbicidal effect, Barnyardgrass” value is 5 (90% or more of herbicidal effect and crop phytotoxicity). Also, the “herbicidal effect, Green Foxtail” value in assay [10] is 5 (90% or more of herbicidal effect and crop phytotoxicity). In [11], the “herbicidal effect, Slender Amaranth” value is 5 (90% or more of herbicidal effect and crop phytotoxicity). For the same compound, the “herbicidal effect, Monochoria vaginalis” value in assay [5] was 5 (90% or more of herbicidal effect and crop phytotoxicity). For the same compound, in [6], the “herbicidal effect, Echinochloa oryzicola Vasing” value was 5 (90% or more of herbicidal effect and crop phytotoxicity). For the same compound, the “herbicidal effect, Scirpus juncoides Roxb.” value in [7] is 5 (90% or more of herbicidal effect and crop phytotoxicity).
Turning to `Cn1nc(C(F)(F)F)c(Cn2c(C(F)(F)F)ccc(C(=O)C3=C(O)CCCC3=O)c2=O)c1OC(F)F` [I-127], the “herbicidal effect, Velvetleaf” value in assay [8] was 5 (90% or more of herbicidal effect and crop phytotoxicity). In assay [9], the “herbicidal effect, Barnyardgrass” value is 5 (90% or more of herbicidal effect and crop phytotoxicity). Also, the “herbicidal effect, Green Foxtail” value in [10] is 5 (90% or more of herbicidal effect and crop phytotoxicity). For the same compound, the “herbicidal effect, Slender Amaranth” value in assay [11] was 5 (90% or more of herbicidal effect and crop phytotoxicity). Further, in [5], the “herbicidal effect, Monochoria vaginalis” value was 4 (70 to less than 90% of herbicidal effect and crop phytotoxicity). Also, the “herbicidal effect, Echinochloa oryzicola Vasing” value in assay [6] was 4 (70 to less than 90% of herbicidal effect and crop phytotoxicity). Besides, the “herbicidal effect, Scirpus juncoides Roxb.” value in assay [7] was 3 (50 to less than 70% of herbicidal effect and crop phytotoxicity).
Take `COc1ccc(-n2c(C(F)(F)F)ccc(C(=O)c3cnn(C)c3O)c2=O)cc1OC` [IV-77]: the “herbicidal effect, Velvetleaf” value in [8] was 5 (90% or more of herbicidal effect and crop phytotoxicity). In assay [9], the “herbicidal effect, Barnyardgrass” value was 5 (90% or more of herbicidal effect and crop phytotoxicity). The “herbicidal effect, Green Foxtail” value in assay [10] was 3 (50 to less than 70% of herbicidal effect and crop phytotoxicity). For the same compound, the “herbicidal effect, Slender Amaranth” value in [11] was 5 (90% or more of herbicidal effect and crop phytotoxicity). Also, the “herbicidal effect, Monochoria vaginalis” value in [5] is 5 (90% or more of herbicidal effect and crop phytotoxicity). Moreover, the “herbicidal effect, Echinochloa oryzicola Vasing” value in assay [6] was 5 (90% or more of herbicidal effect and crop phytotoxicity). In [7], the “herbicidal effect, Scirpus juncoides Roxb.” value is 5 (90% or more of herbicidal effect and crop phytotoxicity).
With `COCCCn1c(C(F)(F)F)ccc(C(=O)C2=C(O)CCCC2=O)c1=O` [I-42], the “herbicidal effect (index), Velvetleaf” value in [8] was 5 (90% or more of herbicidal effect and crop phytotoxicity). For the same compound, in assay [9], the “herbicidal effect (index), Barnyardgrass” value was 5 (90% or more of herbicidal effect and crop phytotoxicity). Moreover, the “herbicidal effect (index), Green Foxtail” value in assay [10] is 5 (90% or more of herbicidal effect and crop phytotoxicity). Besides, the “herbicidal effect (index), Slender Amaranth” value in assay [11] was 5 (90% or more of herbicidal effect and crop phytotoxicity). The “herbicidal effect, Monochoria vaginalis” value in [5] was 5 (90% or more of herbicidal effect and crop phytotoxicity). The “herbicidal effect, Echinochloa oryzicola Vasing” value in assay [6] was 5 (90% or more of herbicidal effect and crop phytotoxicity). Also, the “herbicidal effect, Scirpus juncoides Roxb.” value in assay [7] is 5 (90% or more of herbicidal effect and crop phytotoxicity).
As for `CCCS(=O)(=O)Oc1c(C(=O)c2ccc(C(F)(F)F)n(-c3ccc4c(c3)OCO4)c2=O)cnn1C(C)C` [IV-100], the “herbicidal effect, Velvetleaf” value in assay [8] was 5 (90% or more of herbicidal effect and crop phytotoxicity). In assay [9], the “herbicidal effect, Barnyardgrass” value is 5 (90% or more of herbicidal effect and crop phytotoxicity). Further, in assay [10], the “herbicidal effect, Green Foxtail” value was 5 (90% or more of herbicidal effect and crop phytotoxicity). In addition, the “herbicidal effect, Slender Amaranth” value in assay [11] is 4 (70 to less than 90% of herbicidal effect and crop phytotoxicity). Moreover, in [5], the “herbicidal effect, Monochoria vaginalis” value was 5 (90% or more of herbicidal effect and crop phytotoxicity). For the same compound, in [6], the “herbicidal effect, Echinochloa oryzicola Vasing” value was 5 (90% or more of herbicidal effect and crop phytotoxicity). For the same compound, in [7], the “herbicidal effect, Scirpus juncoides Roxb.” value is 5 (90% or more of herbicidal effect and crop phytotoxicity).
